This note sets out measurements from ChEMBL document CHEMBL4418271, “Novel Ethanediamone Hepcidine Antagonists” (2012).

Each structure is given as a SMILES string.

The first experiment deals with Ferroportin (Homo sapiens, UniProt Q9NP59). Nature of the experiment: Inhibition of human hepcidin-stimulated recombinant C-terminal Halo-tagged human FPN internalization in MDCK cells incubated for 15 to 20 mins by Halo-tagged TMR based fluorescence assay. The experiment is classed as cell-based.
Sequence of Ferroportin (Q9NP59 whole entry, looked up): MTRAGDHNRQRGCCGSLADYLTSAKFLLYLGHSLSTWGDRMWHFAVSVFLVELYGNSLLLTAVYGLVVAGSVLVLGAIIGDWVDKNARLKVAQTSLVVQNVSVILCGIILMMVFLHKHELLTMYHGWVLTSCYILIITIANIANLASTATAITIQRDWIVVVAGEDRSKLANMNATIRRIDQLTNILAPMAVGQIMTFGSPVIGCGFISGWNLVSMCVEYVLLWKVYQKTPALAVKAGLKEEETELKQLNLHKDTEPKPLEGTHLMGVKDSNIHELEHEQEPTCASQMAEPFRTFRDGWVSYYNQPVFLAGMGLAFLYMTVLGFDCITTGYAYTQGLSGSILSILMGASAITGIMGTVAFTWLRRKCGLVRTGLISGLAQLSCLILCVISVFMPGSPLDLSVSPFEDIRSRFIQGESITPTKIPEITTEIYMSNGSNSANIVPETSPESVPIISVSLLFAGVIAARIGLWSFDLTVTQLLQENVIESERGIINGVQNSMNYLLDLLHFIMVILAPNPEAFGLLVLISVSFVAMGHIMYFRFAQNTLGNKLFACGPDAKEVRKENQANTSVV
As for `CC(=O)N1CCN(CC(NCc2ccccn2)c2ccc(F)cc2)CC1` (configuration not stated), the IC50 is greater than 100 µM. On to `COCCN1CCN(C(CN2CCC(N3CCN(C)CC3)CC2)c2ccccc2)CC1` (configuration not stated), for which the IC50 was greater than 100 µM. Still for that read-out and setting: with `CCOCCN1CCN(C(CN2CCC(N3CCCCC3)CC2)c2ccccc2)CC1` (configuration not stated) the figure was less than 50 µM.

As for `CN(CCN(C)c1cnccn1)CC(NCc1ccccn1)c1ccc(F)cc1` (configuration not stated), the IC50 was less than 50 µM. Same read-out and setting: with `CC(C)N1CCN(C(CN2CCC(N3CCCCC3)CC2)c2ccccc2)CC1` (configuration not stated) the figure was greater than 100 µM; with `COCCN1CCN(C(CN2CCC(NC(=O)c3ccccc3)CC2)c2ccccc2)CC1` (configuration not stated), greater than 100 µM; with `COCCN1CCN(C(CN2CCC(N3CCCCC3)CC2)c2ccc(C(F)(F)F)cc2)CC1` (configuration not stated), less than 50 µM. Consider `c1ccc(C(CN2CCCCC2)NCCN2CCOCC2)cc1` (configuration not stated), for which the concentration for half-maximal inhibition (IC50) was less than 100 µM.

With `COCCN1CCN(C(CN2CCC(N3CCCCC3)CC2)c2cccc(OC)c2)CC1` (configuration not stated), the IC50 was less than 100 µM. For the compound `COCCN1CCN(C(CN2CCC(N3CCOCC3)CC2)c2ccccc2)CC1` (configuration not stated), the half-inhibitory concentration (IC50) was less than 50 µM. `COCCNC(CN1CCN(C(=O)C2CCCO2)CC1)c1ccc(F)cc1` (configuration not stated): the IC50 was greater than 100 µM.

Take `COCCN1CCN(C(CN2CCC(NC3CCCC3)CC2)c2ccccc2)CC1` (configuration not stated): the IC50 is less than 50 µM. For the compound `c1ccc(C(CN2CCC(N3CCCCC3)CC2)N2CCN(c3cnccn3)CC2)cc1` (configuration not stated), the IC50 was greater than 100 µM. `COCCN1CCN(C(CN2CCC(NC(C)=O)CC2)c2ccccc2)CC1` (configuration not stated): the IC50 is less than 100 µM.

As for `CCOc1ccc(C(CN2CCC(N3CCCCC3)CC2)N2CCN(CCOC)CC2)cc1` (configuration not stated), the IC50 is greater than 100 µM. Turning to `COCCN1CCCN(C(CN2CCC(N3CCCCC3)CC2)c2ccccc2)CC1` (configuration not stated), the IC50 is less than 50 µM. As to `c1ccc(C(CN2CCN(c3cnccn3)CC2)NCc2ccccn2)cc1` (configuration not stated), the IC50 was greater than 100 µM.

As to `O=C(C1CCCO1)N1CCN(C(CN2CCC(N3CCCCC3)CC2)c2ccccc2)CC1` (configuration not stated), the IC50 is greater than 100 µM.

Take `COCCCN1CCN(C(CN2CCC(N3CCCCC3)CC2)c2ccccc2)CC1` (configuration not stated): the IC50 was less than 50 µM. The same measure, in the same setting: with `COCCN1CCN(C(CN2CCC(N3CCCCC3)CC2)c2ccc(OC(C)C)cc2)CC1` (configuration not stated) the figure was greater than 100 µM; with `O=C(c1ccccn1)N1CCN(CC(NCc2ccccn2)c2ccc(F)cc2)CC1` (configuration not stated), greater than 100 µM. Still for that read-out and setting: with `c1ccc(C(CN2CCC(N3CCCCC3)CC2)NCCN2CCOCC2)cc1` (configuration not stated) the figure was less than 100 µM; with `Fc1ccc(C(CN2CCN(c3cnccn3)CC2)NCc2cccs2)cc1` (configuration not stated), greater than 50 µM; with `COCCN1CCN(C(CN2CCC(N3CCCCC3)CC2)c2ccc(F)cc2)CC1` (configuration not stated), less than 50 µM.

Take `c1ccc(CNC(CN2CCN(c3cnccn3)CC2)c2ccncc2)nc1` (configuration not stated): the IC50 is greater than 100 µM. For `NC(CN1CCN(C(=O)C2CCCO2)CC1)c1ccc(F)cc1` (configuration not stated), the concentration for half-maximal inhibition (IC50) is greater than 100 µM. The same measure, in the same setting: with `COCCN1CCN(C(CN2CCC(N3CCCCC3)CC2)c2ccc(C#N)cc2)CC1` (configuration not stated) the figure was less than 50 µM; with `COCCN1CCN(C(CN2CCC(NC(=O)C3CCCCC3)CC2)c2ccccc2)CC1` (configuration not stated), less than 50 µM; with `COCCN1CCN(C(CN2CCN(c3ccccc3)CC2)c2ccccc2)CC1` (configuration not stated), greater than 100 µM.

As to `NC(CN1CCN(c2cnccn2)CC1)c1ccc(F)cc1` (configuration not stated), the concentration for half-maximal inhibition (IC50) is greater than 100 µM.

On to `COCCN1CCN(C(CN2CCC(N3CCC(C)CC3)CC2)c2ccccc2)CC1` (configuration not stated), for which the IC50 is less than 100 µM. Still for that read-out and setting: with `c1ccc(C(CN2CCC(N3CCCCC3)CC2)N2CCN(CC3CCCO3)CC2)cc1` (configuration not stated) the figure was less than 50 µM; with `COCCN1CCN(C(CN2CCC(N3CCCC3)CC2)c2ccccc2)CC1` (configuration not stated), less than 50 µM.

Turning to `COCCC1CCN(C(CN2CCC(N3CCCCC3)CC2)c2ccccc2)CC1` (configuration not stated), the IC50 is greater than 100 µM. The same measure, in the same setting: with `COc1ccccc1C(=O)N1CCN(CC(NCc2ccccn2)c2ccc(F)cc2)CC1` (configuration not stated) the figure was less than 50 µM; with `COCCN1CCN(C(CN2CCOCC2)c2ccccc2)CC1` (configuration not stated), greater than 100 µM; with `COCCN1CCN(C(CN2CCC(C(=O)Nc3ccccc3)CC2)c2ccccc2)CC1` (configuration not stated), less than 100 µM. The same measure, in the same setting: with `CCCCN1CCN(C(CN2CCC(N3CCCCC3)CC2)c2ccccc2)CC1` (configuration not stated) the figure was greater than 100 µM; with `COCCN1CCN(C(CN2CCC(N3CCCCC3)CC2)c2ccc(OC)cc2)CC1` (configuration not stated), less than 50 µM; with `COCCN1CCN(C(CN2CCC(N(C)C)CC2)c2ccccc2)CC1` (configuration not stated), less than 50 µM. Same read-out and setting: with `COCCNC(CN1CCN(c2cnccn2)CC1)c1ccc(F)cc1` (configuration not stated) the figure was greater than 100 µM. As for `Fc1ccccc1C(CN1CCN(c2cnccn2)CC1)NCc1ccccn1` (configuration not stated), the concentration for half-maximal inhibition (IC50) is greater than 100 µM. Same read-out and setting: with `Fc1cccc(C(CN2CCN(c3cnccn3)CC2)NCc2ccccn2)c1` (configuration not stated) the figure was greater than 100 µM. Still for that read-out and setting: with `c1ccc(C(CN2CCC(N3CCCCC3)CC2)N2CCN(c3ccccn3)CC2)cc1` (configuration not stated) the figure was greater than 100 µM; with `O=C(C1CCCO1)N1CCN(CC(NCc2cccs2)c2ccc(F)cc2)CC1` (configuration not stated), greater than 100 µM. The same measure, in the same setting: with `c1ccc(C(CN2CCC(N3CCCCC3)CC2)N2CCN(C3CCCC3)CC2)cc1` (configuration not stated) the figure was greater than 100 µM; with `c1ccc(C(CN2CCC(N3CCCCC3)CC2)N2CCN(CCn3ccnc3)CC2)cc1` (configuration not stated), greater than 100 µM. On to `Fc1ccc(C(CN2CCN(c3ccccc3)CC2)NCc2ccccn2)cc1` (configuration not stated), for which the IC50 is greater than 100 µM. The same measure, in the same setting: with `Fc1ccc(C(CN2CCN(c3cnccn3)CC2)NCc2ccccn2)cc1` (configuration not stated) the figure was less than 50 µM; with `Clc1ccc(C(CN2CCN(c3cnccn3)CC2)NCc2ccccn2)cc1` (configuration not stated), greater than 100 µM. With `O=C(C1CCCO1)N1CCN(CC(NCc2ccccc2)c2ccccc2)CC1` (configuration not stated), the IC50 was greater than 100 µM. The same measure, in the same setting: with `CCN(CC)C1CCN(CC(c2ccccc2)N2CCN(CCOC)CC2)CC1` (configuration not stated) the figure was less than 50 µM. As to `COCCN1CCN(C(CN2CCC(N3CCCCC3)CC2)c2ccc(Cl)cc2)CC1` (configuration not stated), the 50% inhibitory concentration (IC50) is greater than 100 µM. The same measure, in the same setting: with `CCOC(=O)C1CCN(CC(c2ccccc2)N2CCN(CCOC)CC2)CC1` (configuration not stated) the figure was greater than 100 µM; with `COc1ccc(CNC(CN2CCC(N3CCCCC3)CC2)c2ccccc2)cc1` (configuration not stated), less than 100 µM.

Take `CCN(CC)CCN1CCN(C(CN2CCC(N3CCCCC3)CC2)c2ccccc2)CC1` (configuration not stated): the IC50 was greater than 100 µM.

Consider `COCCN1CCN(C(CN2CCC(NC(=O)C(C)C)CC2)c2ccccc2)CC1` (configuration not stated), for which the IC50 is less than 100 µM. On to `COCCN1CCN(C(CN2CCC(C(=O)NC3CCCCC3)CC2)c2ccccc2)CC1` (configuration not stated), for which the IC50 was greater than 100 µM.

Regarding `COc1ccc(CNC(CN2CCCCC2)c2ccccc2)cc1` (configuration not stated), the IC50 was greater than 100 µM. In the case of `COCCN1CCN(C(CN2CCC(Nc3ccccc3)CC2)c2ccccc2)CC1` (configuration not stated), the 50% inhibitory concentration (IC50) was greater than 100 µM. Same read-out and setting: with `Fc1ccc(C(CN2CCN(c3cnccn3)CC2)NCc2ccccc2)cc1` (configuration not stated) the figure was greater than 50 µM; with `CNC(=O)C1CCN(CC(c2ccccc2)N2CCN(CCOC)CC2)CC1` (configuration not stated), less than 100 µM; with `COCCN1CCN(C(CN2CCC(N3CCCCC3)CC2)c2ccc(C)cc2)CC1` (configuration not stated), less than 50 µM. As to `COCCN1CCN(C(CN2CCC(N3CCCCC3)CC2)c2ccccc2Cl)CC1` (configuration not stated), the IC50 was greater than 100 µM. As for `COCCN1CCN(C(CN2CCCCC2)c2ccccc2)CC1` (configuration not stated), the 50% inhibitory concentration (IC50) is less than 100 µM. The same measure, in the same setting: with `COCCN1CCN(C(CN2CCC(C3CCCCC3)CC2)c2ccccc2)CC1` (configuration not stated) the figure was greater than 100 µM; with `COCCN1CCN(C(CN2CCC(N3CCCCC3)CC2)c2ccccc2)CC1` (configuration not stated), less than 50 µM.

With `COCCN1CCN(C(CN2CCC(N3CCCCC3)CC2)c2cccc(Cl)c2)CC1` (configuration not stated), the IC50 is greater than 100 µM. Same read-out and setting: with `Fc1ccc(C(CN2CCN(c3ccccn3)CC2)NCc2ccccn2)cc1` (configuration not stated) the figure was greater than 100 µM; with `O=S(=O)(c1ccccc1)N1CCN(CC(NCc2ccccn2)c2ccc(F)cc2)CC1` (configuration not stated), greater than 100 µM. For the compound `O=C(C1CCCO1)N1CCN(CC(NCc2ccccc2)c2ccc(F)cc2)CC1` (configuration not stated), the IC50 is greater than 100 µM.

A further experiment concerns the target T1, Hepcidin (Homo sapiens) (UniProt P81172).
T1 sequence (whole entry): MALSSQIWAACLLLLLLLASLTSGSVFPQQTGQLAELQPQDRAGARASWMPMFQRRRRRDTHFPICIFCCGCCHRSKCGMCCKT
Nature of the experiment: Inhibition of human hepcidin-stimulated recombinant C-terminal Halo-tagged human FPN internalization in MDCK cells at 10 uM incubated for 15 to 20 mins by Halo-tagged TMR based fluorescence assay relative to control. In kind it is cell-based.
On to `c1ccc(C(CN2CCC(N3CCCCC3)CC2)NCCN2CCOCC2)cc1` (configuration not stated), for which the inhibition was less than 50%. With `O=C(C1CCCO1)N1CCN(CC(NCc2ccccn2)c2ccccc2)CC1` (configuration not stated), the inhibition was less than 50%.

As for `Fc1ccc(C(CN2CCN(c3cnccn3)CC2)NCc2ccccn2)cc1` (configuration not stated), the inhibition is greater than 50%. On the same count and under the same terms, with `COc1ccc(CNC(CN2CCC(N3CCCCC3)CC2)c2ccccc2)cc1` (configuration not stated) the figure was less than 50%; with `O=C(C1CCCO1)N1CCN(CC(NCc2ccccn2)c2ccc(F)cc2)CC1` (configuration not stated), less than 50%; with `COCCN1CCN(C(CN2CCC(N3CCCCC3)CC2)c2ccccc2)CC1` (configuration not stated), greater than 50%.
